{
  "source": "patent US20080014255A1",
  "about": "“Liposome bonded with antibody and polyalkylene glycol” (Mitsubishi Chemical Corporation, priority 1999, published 2008)",
  "assay": "Pharmacokinetic test: plasma DXR concentration after tail vein administration of liposomes",
  "format": "in vivo, Male BALB/cAjcl mice",
  "conditions": "free (leaked) DXR",
  "description": "Male BALB/cAjcl mice (6-week old) were used in experiments. A mouse group consisting of four mice was used for each of the liposomes, and one untreated mouse was used as a blank in the experiment. The liposomes were administered into the tail vein at the dose of 2 mg/kg as DXR. After 16 hours from the administration, a Nembutal injection solution (Dainippon Pharmaceutical Co., Ltd.) was intraperitoneally administered to the mice and thoracotomy was performed under anesthetization to collect blood. Blood plasma was separated and used for analysis of DXR.\n100 μL of the plasma was added with 1 mL of 0.3 M hydrochloric acid/50% ethanol (hydrochloric ethanol) and heated at 60° C. for 10 minutes to extract DXR. The extract was cooled to 4° C. and centrifuged at 15,000 rpm for 10 minutes to collect a supernatant. The sample was diluted 4 times with hydrochloric ethanol and its fluorescence was measured at a fluorescence wavelength of 590 nm with an excitation wavelength of 490 nm. A calibration curve was prepared by using DXR diluted with hydrochloric ethanol to known concentrations and used in quantification of DXR in plasma. The recovery of DXR from the mouse plasma was 95 to 98% in a range of […] of DXR (Reference: Cancer Res., 47, 4471, 1987).\nDXR in blood plasma was quantified in the same manner as in Example 2.",
  "data": [
    {"smiles": "COc1cccc2c1C(=O)c1c(O)c3c(c(O)c1C2=O)C[C@@](O)(C(=O)CO)C[C@@H]3O[C@H]1C[C@H](N)[C@H](O)[C@H](C)O1", "note": "[DXR, doxorubicin]", "values": [
      {"measurement": "disappearance from blood of DXR leaked from the liposomes", "result": "rapidly disappear from blood"}
    ]}
  ]
}
